The data set in a line: Static contact angle of liquid monomer on coated substrate (goniometer). The class given is physicochemical. As for the experimental part:
Contact angle and aspect ratio analysis: Contact angle measurements were performed using a Ramé-Hart Model 500 contact angle goniometer. A pipette was used to dispense 5 μL of liquid HEMA, 4VP, and DVB onto the substrate for static contact angle measurements.

The mark [1] stands for this setting: 5 μL liquid monomer on flattened PPFDA base layer, n=5.

Turning to `C=C(C)C(=O)OCCO` [HEMA, 2-hydroxyethyl methacrylate], the contact angle (5 μL liquid monomer on PDVB thin film coated substrate, n=4) is on record as 18.5±1.1 ° and the contact angle under setting [1] is reported as 86.4±1.0 °.
For the molecule `C=Cc1ccncc1` [4VP, 4-vinylpyridine], the contact angle under setting [1] came out at 80.6±1.7 °.
Still for that read-out and setting: the value for divinylbenzene [DVB] was 86.5±1.6 °.

The values above are taken from patent publication US20250073169A1, “POLYMER NANOPARTICLES VIA CONDENSED DROPLET POLYMERIZATION” (CORNELL UNIVERSITY, priority 2021, published 2025).
